Holding throughout (test): DTP human tumour cell line panel, 48 h
In test [1] the test system is UO-31 renal.
The subject of test [2] is NCI/ADR-RES ovarian.
Test [3] relates to RXF 393 renal.
The test system of test [4] is NCI-H23 lung.
The test system of test [5] is RPMI-8226 leukemia.
Test [6] deals with MCF7 breast.
For test [7], the system named is SNB-19 CNS.
Test [8] relates to SR leukemia.
The test system of test [9] is A498 renal.
The test system of test [10] is KM12 colon.

Structures are written as SMILES.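 The compound was tested at five concentrations on cells cultured in 96-well plates, with a 48-hour exposure period. At the GI50, growth is halved. TGI marks complete inhibition of growth.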

As usually defined, the GI50 is the concentration that inhibits growth by half. In general, TGI refers to the concentration at which net growth stops. With `COC(=O)[C@]1(C)CCC[C@]2(C)[C@@H]1CCC13C[C@@H](C=CO1)[C@@H](C)CC32O` (some centres undefined), the GI50 was above 100 µM in [1]; above 100 µM in [2]; 66.8 µM in test [3]; 20.3 µM in test [4]; 7.84 µM in test [5]; 25.7 µM in test [6]. In addition, the GI50 is above 100 µM in test [7] and 17.1 µM in test [8]. For the same molecule, the total growth inhibition concentration (TGI) in test [1] is above 100 µM; in test [2] it was above 100 µM; in test [3] it was above 100 µM; in test [4] it was above 100 µM; in test [5] it was 82 µM; in [6], above 100 µM. For the same molecule, the TGI in test [7] and in [8] was above 100 µM each time.

Take `Nc1ncc(C2[C@H](CNC(=O)c3cc(Br)c[nH]3)C(CNC(=O)c3cc(Br)c[nH]3)[C@@H]2c2cnc(N)[nH]2)[nH]1` (some centres undefined): the GI50 in test [1], in test [9], in [2], in test [10], in [4] and in test [5] was above 50 µM in each case. Also, the GI50 in [6] was above 50 µM; in test [8] it was 25.1 µM. Moreover, the TGI in test [1], in test [9], in test [2], in [10], in [4] and in test [5] was above 50 µM throughout. Further, the concentration for total growth inhibition (TGI) in test [6] and in test [8] was above 50 µM throughout.

Take `C=C1CC/C=C(\C)CC[C@H](C(=C)C)[C@@H](O)/C=C(/CO)CCC1O` (some centres undefined): the GI50 was 62.2 µM in test [1]; above 100 µM in [9]; above 100 µM in test [2]; 4.58 µM in test [10]; 89.9 µM in test [3]; 80.6 µM in test [4]. The values for the GI50 in test [5], in test [6] and in [7] were 32 µM, 21.4 µM and above 100 µM, respectively. Further, the TGI in test [1], in [9], in [2], in test [10], in [3] and in test [4] was above 100 µM throughout. The total growth inhibition concentration (TGI) in test [5] was 71.6 µM; in [6] it was above 100 µM; in [7] it was above 100 µM.

For the molecule `COc1ccc(Cc2nc3cc(OC)c(OC)cc3c(=O)[nH]2)cc1`, the GI50 in test [1] is 4.66 µM; in test [9], 18.6 µM; in test [2], 12.4 µM; in test [10], 2.68 µM; in test [3], 3.95 µM; in [4], 4.03 µM. In addition, the GI50 was 4.05 µM in test [5], 5.32 µM in [6] and 7.23 µM in [7]. The TGI in test [1] was above 100 µM; in [9] it was 66.9 µM; in test [2], 59 µM; in test [10], 10.4 µM; in [3] it was 24.3 µM; in test [4], 33.1 µM. For the same molecule, the TGI is above 100 µM in test [5], above 47.5 µM in test [6] and above 100 µM in test [7].

Regarding `C#Cc1cccc(NC(=O)C2CCCN(C(=O)CCl)C2)c1` (centres undefined), the GI50 in test [1] is 12.9 µM; in test [2], above 82.5 µM; in test [10], above 82.5 µM; in test [3], above 82.5 µM; in test [4], 21.8 µM; in [5], above 82.5 µM. Further, the GI50 in test [6] is above 82.5 µM; in [7], above 82.5 µM; in test [8], 24.2 µM. Besides, the TGI in test [1] is 26.4 µM; in test [2] it was above 82.5 µM; in test [10], above 82.5 µM; in test [3], above 82.5 µM; in [4], above 82.5 µM; in test [5], above 82.5 µM. The TGI in test [6], in test [7] and in [8] was above 82.5 µM each time.

`N#CC(NC(=O)CCl)=C(Cl)Cl`: the GI50 in [1] was 1.25 µM; in test [9] it was 1.86 µM; in test [2], 2.95 µM; in test [10] it was 1.88 µM; in [3] it was 1.27 µM; in [4] it was 1.7 µM. For the same molecule, the GI50 was 1.22 µM in test [6], 1.67 µM in test [7] and 0.702 µM in test [8]. The TGI in [1] came out at 2.56 µM; in test [9], 3.88 µM; in [2] it was 16.8 µM; in [10], 4.17 µM; in [3] it was 2.64 µM; in test [4] it was 3.56 µM. The TGI was 9.07 µM in test [6], 3.17 µM in test [7] and 2.68 µM in [8].

Take `NC(=O)c1ncn(C2OC(CO)C(O)C2O)c1N` (centres undefined): the GI50 in [1], in [9], in test [2], in test [10], in test [3] and in [4] was above 100 µM each time. For the same molecule, the GI50 in test [5], in test [6] and in [7] was above 100 µM each time. Also, the TGI in test [1], in test [9], in test [2], in test [10], in [3] and in [4] was above 100 µM each time. For the same molecule, the TGI in test [5], in test [6] and in test [7] was above 100 µM each time.

For `C=CCN=C(N/N=C/c1ccc([N+](=O)[O-])o1)NS(=O)(=O)c1cc(C(=O)Nc2ccccc2)c(Cl)cc1SCC(N)=O`, the GI50 in [1] is above 100 µM; in test [9], 77.8 µM; in test [2], above 100 µM; in [10], 17.1 µM; in [3], 24.8 µM; in [4] it was 20.9 µM. Besides, the values for the GI50 in test [5], in [6] and in test [7] were 20.4 µM, 25.2 µM and 33.8 µM, respectively. For the same molecule, the TGI was above 100 µM in [1]; above 100 µM in [9]; above 100 µM in test [2]; 32.5 µM in [10]; above 100 µM in test [3]; 49.6 µM in test [4]. Also, the TGI in test [5] was 55.1 µM; in test [6], 77.6 µM; in test [7], above 100 µM.

In the case of `CN(C)c1ccc(C2CC(C)(O)Oc3cc4c(cc32)OCO4)cc1` (centres undefined), the TGI in test [1] is 93.1 µM; in [2], above 100 µM; in test [10], above 100 µM; in test [3], above 100 µM; in test [4] it was above 100 µM; in test [5] it was 47.6 µM. In addition, the TGI in [6], in test [7] and in test [8] was above 100 µM in each case.

The values above are taken from PubChem BioAssay (NCI).
